# How the values were obtained:
# LH-15 cells = assay: MTT cell viability assay in LH-15 granulosa cells under H2O2; assay type: cell-based, rat; conditions: H2O2 100-500 μM, 24 hours, 2% serum
# Method: (§1) Rat granulosa cell line LH-15 [Suh et al. J Cell Biol (1992) 119: 439-450] was cultured in hormone-free DMEM-F12 medium, supplemented with penicillin (100 IU/ml; Biological Industries), streptomycin ([…]; Biological Industries) and 10% charcoal-stripped fetal bovine serum (CS-FBS; Invitrogen) (culture medium), as described previously (Breckwoldt et al. 1996, Sasson & Amsterdam 2002). Cells were serum-starved for 16 hours (0.1% CS-FBS) prior to and during recombinant PEDF (rPEDF) stimulation or incubated in 2% CS-FBS during H2O2 stimulation.
# Equal amount of LH-15 cells were seeded onto 6-well plates to a final volume of 500 μl. Following treatments, each well was incubated for 30 minutes with 10 μl of MTT [3-(4, 5-Dimethylthiazol-2-yl)-2, 5-diphenyltetrazolium bromide; 5 mg/ml] followed by an additional 2-4 hours incubation period at 37° C. The reaction was terminated by addition of 110 μl HCl (0.07 M in isopropanol) and OD 560 nm was measured by the SpectraMax 190 microplate reader ([…], Eugene, Oreg., USA).
# PEDF mRNA [1] = assay: PEDF mRNA level (qPCR) in LH-15 cells exposed to H2O2; assay type: cell-based, rat; conditions: H2O2, 24 hours
# Method: as §1
# (§2) Total RNA was isolated from various tissues (ovaries, eyes) or from granulosa cells, using Trizol reagent (Invitrogen) according to manufacturer's instructions, and quantified with the Nano-Drop spectrophotometer (ND-1000; Thermo Scientific). First-strand cDNA was produced by RT (Maxima™ Reverse transcriptase, Thermo Scientific) from a total of 1 μg RNA, using oligo-dt primers (Thermo Scientific). DNA was amplified using 1 μl RT reaction and 50 pmol gene-specific primers in ReadyMix™ mixture (Sigma). […] Changes in the level of expression of mRNA were detected by SYBR green reagent (SYBR® Green PCR Master Mix, ABI, Carlsbad, Calif., USA) along with 15 ng cDNA and specific primers, on a StepOnePlus Real-Time PCR System (Applied Biosystems, Foster City, Calif., USA).
# BAX = BAX protein level (western blot) in LH-15 cells under H2O2; assay type: cell-based, rat; conditions: H2O2 treatment alone, 24 hours
# Method: as §1
# Samples were homogenized in cold lysis buffer (20 mM HEPES, 150 mM NaCl and 0.2% Igepal; sigma) and centrifuged at 12,000 rpm, for 15 min, at 4° C.). Proteins were separated by sodium dodecyl sulfate polyacrylamide gel electrophoresis (SDS-PAGE; 10%; Bio-Rad, Israel). Separated proteins were transferred onto nitrocellulose membranes (Whatman GmbH, Germany) in a mini tank transfer unit (TE 22, Amersham, UK). Approximate molecular masses were determined by comparison with the migration of pre-stained protein standards (Bio-Rad). Blots were blocked for 1 hour in TBST (10 mM Tris-HCl, pH=8.0, 150 mM NaCl, 0.05% Tween 20) containing 5% skim-milk (Alba, N.Y., USA) followed by an over-night incubation at 4° C. with primary antibodies. […] Intensity of the protein bands was quantified by Image J […] (NIH).
# SOD-1 = SOD-1 mRNA level (qPCR) in LH-15 cells under H2O2; assay type: cell-based, rat; conditions: H2O2 treatment alone, 24 hours
# Method: as §1, §2
# GPX-1 = GPX-1 mRNA level (qPCR) in LH-15 cells under H2O2; assay type: cell-based, rat; conditions: H2O2 treatment alone, 24 hours
# Method: as §1, §2
# PEDF mRNA [2] = assay: PEDF mRNA level (qPCR) in ovaries of superovulated mice treated with DXR; assay type: in vivo, mouse; conditions: DXR 6 mg/kg IV vs saline; superovulated 7 weeks ICR female mice
# Method: FIG. 1A is an illustration depicting the experimental setting: 7 weeks ICR female mice (n=5/group) were treated for superovulation with the standard pregnant mares' serum/human chorionic gonadotropin (PMSG/hCG) protocol [Ben-Aharon et al. Reproductive Biology and Endocrinology: RB&E (2010) 8: 20]. Twenty four hours post PMSG mice were administrated with DXR or saline (control). Ovaries were retrieved twenty four hours post hCG. […] Total RNA was extracted from the ovaries and changes in PEDF mRNA (relative quantification; RQ) level were measured by qPCR using specific primers for PEDF (SEQ ID NOs: 10-11); calibrated with HPRT (SEQ ID NOs: 6-7).
# DXR damage was evaluated in 7 weeks ICR female mice following treatment for superovulation with pregnant mares' serum (PMSG, 7 IU) SC on day 0 and human chorionic gonadotropin (hCG, […]) SC on day 2. On day 1, mice were administered with DXR (6 mg/kg) or saline (control) IV. Mice ovaries were retrieved on day 3 (FIG. 1A). […]
# Total RNA was isolated from various tissues (ovaries, eyes) or from granulosa cells, using Trizol reagent (Invitrogen) according to manufacturer's instructions, and quantified with the Nano-Drop spectrophotometer (ND-1000; Thermo Scientific). […] DNA was amplified using 1 μl RT reaction and 50 pmol gene-specific primers in ReadyMix™ mixture (Sigma). […]
# [3] = tested on: ovariectomized (OVX) ICR mice; assay: Uterine weight, sub-acute tamoxifen model in ovariectomized mice; assay type: in vivo, mouse; parameters: uterine weight: dose or concentration left out as unconfirmed; conditions: tamoxifen 0.3-3.3 daily for 7 days
# Method: (§3) DXR damage was evaluated in 7 weeks ICR female mice following treatment for superovulation with pregnant mares' serum (PMSG, 7 IU) SC on day 0 and human chorionic gonadotropin (hCG, […]) SC on day 2. On day 1, mice were administered with DXR (6 mg/kg) or saline (control) IV. Mice ovaries were retrieved on day 3 (FIG. 1A). The ability of rPEDF to overcome the destructive effect of DXR 7 weeks ICR female mice were treated with DXR (6 mg/kg) or saline (control) IV on day 0, rPEDF (2 mg/kg) or TRIS (control) was administered SC on day 1, followed by induction for superovulation with PMSG (7 IU) SC on day 4 and hCG (7 IU) SC on day 6. Mice ovaries were retrieved on day 7 (FIG. 2A). […] Mice uteri were excised at day 7. […] Mice treated with tamoxifen alone served as control. […] Mice treated with tamoxifen alone served as control.
# (§4) At the end of each experiment, uteri were isolated, excised and weighed.
# VEGF [4] = assay: Uterine VEGF protein (western blot), sub-acute tamoxifen model; assay type: in vivo, mouse; conditions: tamoxifen daily for 7 days, various concentrations
# Method: as §3
# (§5) Samples were homogenized in cold lysis buffer (20 mM HEPES, 150 mM NaCl and 0.2% Igepal; sigma) and centrifuged at 12,000 rpm, for 15 min, at 4° C.). Proteins were separated by sodium dodecyl sulfate polyacrylamide gel electrophoresis (SDS-PAGE; 10%; Bio-Rad, Israel). […] Approximate molecular masses were determined by comparison with the migration of pre-stained protein standards (Bio-Rad). […] Intensity of the protein bands was quantified by Image J […] (NIH).
# PEDF [5] = assay: Uterine PEDF protein (western blot), sub-acute tamoxifen model; assay type: in vivo, mouse; conditions: tamoxifen daily for 7 days, increasing doses
# PNPLA2 [6] = assay: Uterine PNPLA2 mRNA (qPCR), sub-acute tamoxifen model; assay type: in vivo, mouse; conditions: sub-acute tamoxifen treatment
# Method: DXR damage was evaluated in 7 weeks ICR female mice following treatment for superovulation with pregnant mares' serum (PMSG, 7 IU) SC on day 0 and human chorionic gonadotropin (hCG, […]) SC on day 2. On day 1, mice were administered with DXR (6 mg/kg) or saline (control) IV. Mice ovaries were retrieved on day 3 (FIG. 1A). […] Mice ovaries were retrieved on day 7 (FIG. 2A). […] Mice uteri were excised at day 7.
# Total RNA was isolated from various tissues (ovaries, eyes) or from granulosa cells, using Trizol reagent (Invitrogen) according to manufacturer's instructions, and quantified with the Nano-Drop spectrophotometer (ND-1000; Thermo Scientific). First-strand cDNA was produced by RT (Maxima™ Reverse transcriptase, Thermo Scientific) from a total of 1 μg RNA, using oligo-dt primers (Thermo Scientific). DNA was amplified using 1 μl RT reaction and 50 pmol gene-specific primers in ReadyMix™ mixture (Sigma). Polymerase Chain Reaction (PCR) products were separated by 1.5% agarose gel electrophoresis and visualized by ethidium bromide staining. Changes in the level of expression of mRNA were detected by SYBR green reagent (SYBR® Green PCR Master Mix, ABI, Carlsbad, Calif., USA) along with 15 ng cDNA and specific primers, on a StepOnePlus Real-Time PCR System (Applied Biosystems, Foster City, Calif., USA).
# Laminin receptor [7] = assay: Uterine Laminin receptor mRNA (qPCR), sub-acute tamoxifen model; assay type: in vivo, mouse; conditions: sub-acute tamoxifen treatment
# OVX ICR mice = assay: Uterine weight, prolonged tamoxifen model in ovariectomized mice; assay type: in vivo, mouse; conditions: tamoxifen 2.5 μg/mouse 5 days per week for one month
# Method: as §3, §4
# VEGF [8] = assay: Uterine VEGF protein (western blot), prolonged tamoxifen model; assay type: in vivo, mouse; conditions: tamoxifen 2.5 μg/mouse 5 days per week for one month
# Method: as §3, §5
# PEDF [9] = assay: Uterine PEDF protein (western blot), prolonged tamoxifen model; assay type: in vivo; conditions: tamoxifen 2.5 μg/mouse 5 days per week for one month
# PNPLA2 [10] = assay: Uterine PNPLA2 mRNA (qPCR), prolonged tamoxifen model; assay type: in vivo, mouse; conditions: one month of tamoxifen treatment
# Laminin receptor [11] = assay: Uterine Laminin receptor mRNA (qPCR), prolonged tamoxifen model; assay type: in vivo, mouse; conditions: one month of tamoxifen treatment
# CD34 = CD34 immunohistochemical staining of uterine blood vessels, prolonged tamoxifen model; assay type: in vivo, mouse; conditions: prolonged tamoxifen alone vs control
# Method: as §3
# Paraffin-embedded sections were deparaffinized, microwave heated while being subjected to an antigen retrieval agent (H-3300, Vector Laboratories Inc., Burlingame, Calif., USA), cooled on ice to room temperature, rinsed in PBS, incubated for 1 hour with PBSTg (0.2% Tween and gelatin in PBS), washed with PBS, blocked for 10 minutes in blocking solution (Cell Marque Corporation, Calif., USA) and incubated overnight with anti PNPLA2 or anti-CD34 primary antibodies. […]
# ERα [12] = assay: Uterine ERα mRNA (qPCR), sub-acute tamoxifen model; assay type: in vivo, mouse; conditions: sub-acute tamoxifen treatment
# [13] = tested on: progesterone receptor (PR); assay: Uterine PR mRNA (qPCR), sub-acute tamoxifen model; assay type: in vivo, mouse; conditions: sub-acute tamoxifen treatment
# ERα [14] = assay: Uterine ERα mRNA (qPCR), prolonged tamoxifen model; assay type: in vivo, mouse; conditions: prolonged tamoxifen treatment
# [15] = tested on: progesterone receptor (PR); assay: Uterine PR mRNA (qPCR), prolonged tamoxifen model; assay type: in vivo, mouse; conditions: prolonged tamoxifen treatment
# Method: DXR damage was evaluated in 7 weeks ICR female mice following treatment for superovulation with pregnant mares' serum (PMSG, 7 IU) SC on day 0 and human chorionic gonadotropin (hCG, […]) SC on day 2. On day 1, mice were administered with DXR (6 mg/kg) or saline (control) IV. Mice ovaries were retrieved on day 3 (FIG. 1A). The ability of rPEDF to overcome the destructive effect of DXR 7 weeks ICR female mice were treated with DXR (6 mg/kg) or saline (control) IV on day 0, rPEDF (2 mg/kg) or TRIS (control) was administered SC on day 1, followed by induction for superovulation with PMSG (7 IU) SC on day 4 and hCG (7 IU) SC on day 6. Mice ovaries were retrieved on day 7 (FIG. 2A). […] Mice uteri were excised at day 7. […] Mice treated with tamoxifen alone served as control. […]
# as §2, with “First-strand cDNA was produced by RT (Maxima™ Reverse transcriptase, Thermo Scientific) from a total of 1 μg RNA, using oligo-dt primers (Thermo Scientific).” left out
structure (smiles),measurement,setting,value
OO [H2O2],cells viability (MTT),LH-15 cells,"statistically significant (P<0.05), dose dependent, decrease in cells viability"
same,PEDF mRNA level in LH-15 cells,PEDF mRNA [1],"significantly (P<0.01) reduced PEDF mRNA level, already at a concentration of 100 μM"
same,BAX level,BAX,elevated
same,SOD-1 mRNA level,SOD-1,decreased
same,GPX-1 mRNA level,GPX-1,decreased
"COc1cccc2c1C(=O)c1c(O)c3c(c(O)c1C2=O)C[C@@](O)(C(=O)CO)C[C@@H]3O[C@H]1C[C@H](N)[C@H](O)[C@H](C)O1 [DXR, Doxorubicin]",PEDF mRNA level in mice ovaries,PEDF mRNA [2],significantly (P<0.05) reduced PEDF mRNA level
CC/C(=C(\c1ccccc1)c1ccc(OCCN(C)C)cc1)c1ccccc1 [tamoxifen],uterine weight,[3],dose dependent increase
same,uterine VEGF protein level,VEGF [4],up-regulated in a dose dependent manner
same,uterine PEDF protein expression,PEDF [5],down-regulated
same,PNPLA2 receptor mRNA level in uteri,PNPLA2 [6],up-regulated
same,Laminin receptor mRNA level in uteri,Laminin receptor [7],up-regulated
same,uterine weight,OVX ICR mice,increase in uterine weight
same,uterine VEGF protein level,VEGF [8],up-regulation of VEGF protein level
same,uterine PEDF protein level,PEDF [9],down-regulation of PEDF protein level
same,PNPLA2 level in uteri,PNPLA2 [10],significantly increased
same,Laminin receptor level in uteri,Laminin receptor [11],did not change significantly
same,density of uterine blood vessels (CD34 staining),CD34,remarkable increase in the density of uterine blood vessels
same,ERα mRNA level in uteri,ERα [12],up-regulated
same,PR mRNA level in uteri,[13],no significant effect
same,ERα mRNA expression in uteri,ERα [14],up-regulated
same,PR expression in uteri,[15],no significant effect

# Source: patent publication US10130682B2, “Methods of using pigment epithelium derived factor (PEDF) for the treatment and prevention of agent-induced gonadal or uterine toxicity” (Ramot at Tel-Aviv University Ltd., priority 2014, dated 2018)
